Experimental data taken from patent US20100099730A1, “ANNELLATED PYRROLE COMPOUNDS FOR CANCER MANAGEMENT” (MERCKLE GMBH, priority 2006, published 2010).

Tests used:
HCA-7 cells [1] = test: Cell morphology: phase-contrast and Hoechst 33342 fluorescence microscopy; assay type: cell-based, human; conditions: licofelone 150 μM
Experimental: Morphological changes in the nuclear chromatin of cells undergoing apoptosis were detected by staining with the DNA-binding fluorochrome bis-benzimide stain. Briefly, HCA-7 were seeded in a flat-bottomed 96-well plate at the density of 2×10^4 cells/well and grown for 24 hours in complete medium. Cells where then cultured in the presence or absence of licofelone 150 μM at the indicated times; at the end of incubation, Hoechst 33342 (1 μg/ml) was added to each well for at least 20 min. at 37° C. HCA-7 cells were then washed with phosphate-buffered saline (PBS), fixed in 4% formaldehyde and observed under a fluorescence microscope.

HCA-7 cells [2] = test: MTT reduction assay, HCA-7 survival/proliferation; assay type: cell-based, human
Experimental: LS174T and CACO-2 were a generous gift of Prof. F. Dall'Olio (Dept. of Experimental Pathology, University of Bologna, Italy); HCA-7 cells were purchased from European Collection of Cell Cultures. These lines were cultured in Dulbecco's modified Eagle's Medium with 4.5 g/L glucose (DMEM), supplemented with 10% (v/v) heat-inactivated FBS, 2 mM L-glutamine, 100 U/ml penicillin and 100 μg/ml streptomycin. Cells were grown in monolayers, incubated at 37° C. in a humidified atmosphere of 95% air and 5% CO2 and routinely passaged using trypsin-EDTA 0.025%. For treatment with licofelone ([…] GmbH, Ulm, Germany), exponentially growing cells were trypsinized, seeded in regular medium (2×10^4 cells/well in 96-well plates; 1.2×10^5 cells/well in 24-well plates; 6×10^5 cells/well in 6-well plates; 1.5×10^6 cells in 25 cm^2 flasks) and incubated for 24 h. The medium was then replaced either with control medium or with medium containing 100, 125 or 150 μM licofelone. This drug was dissolved in dimethyl sulfoxide (DMSO) and diluted into the medium to obtain the required final concentration before each experiment. Fresh medium, alone or supplemented with licofelone, was completely replaced every 48 hours. To control for an effect of DMSO, control samples were treated in parallel with an equivalent concentration of this solvent. The effect of licofelone on HCA-7 survival/proliferation was determined colourimetrically using the MTT assay. MTT is a yellow-coloured tetrazolium salt that is taken up and cleaved only by metabolically active cells, which reduce it to a coloured, water-insoluble formazan salt. The solubilized formazan product can be quantified via absorbance at 570 nm measured using a 96-well-format spectrophotometer and the absorbance correlates directly with cell number. 2×10^4 cells/well were plated in a 100 μl volume in 96-well plates and grown for 24 h in DMEM supplemented with 10% FBS. Complete medium containing the indicated amount of licofelone, alone or in association with exogenous PGE2 and/or LTB4), was then replaced to each well. At the indicated times, 10 μl of MTT (5 mg/ml) was added and cells were incubated at 37° C. for 4 hours. The tetrazolium crystals were solubilized by the addition of 10% SDS in 0.01 N HCl. After overnight incubation at 37° C., the absorbance was measured at 570 nm using a 96-well spectrophotometric microplate reader. Survival/proliferation rate was calculated as follows (A570 treatment/A570 control×100). All determinations were carried out in triplicate.

PARP = test: Western blot of PARP cleavage in HCA-7 cells; assay type: cell-based, human; conditions: licofelone 150 μM, almost complete at 24 hours
Experimental: (§1) For Western blot analysis, cells were seeded in a 25 cm^2 flask at the density of 1.5×10^6 and grown in complete medium for 24 hours. At the end of incubation cells were scraped from flasks and lysed in a buffer containing 10 mM Tris, 1% SDS, 1 mM Na orthovanadate and a protease inhibitors cocktail. Samples containing 50 μg of protein were subjected to gel electrophoresis in 10% polyacrylamide gels in the presence of SDS. The proteins were then transferred electrophoretically to a Hybond-C nitrocellulose membrane at 300 V for 1 h at 4° C. The membrane was subsequently immersed in 0.5% Ponceau S in 1% acetic acid to stain the proteins and to confirm that equal amounts of protein were loaded in each lane and transferred efficiently. After incubation overnight in a blocking solution containing 5% bovine skim milk powder in 10 mM phosphate buffered saline (PBS, pH 7.4), the nitrocellulose membrane was incubated for 1 h with primary antibodies: anti COX-1, anti COX-2 and anti 5-LOX were used in HCA-7, Caco-2 and LS174T at a dilution of 1:500; anti Caspase-3 and anti PARP-1 were used in HCA-7 at the dilution of 1:250. The membrane was then washed with PBS buffer to remove the excess unbound antibodies and incubated for 1 h with HRP-conjugated secondary antibody, at a dilution of 1:1000. Detection was performed by using the ECL procedure developed by Amersham. […]

[3] = system: LTB4 production by HCA-7 cells; test: LTB4 level in HCA-7 culture medium, enzyme immunoassay; assay type: cell-based, human; conditions: 150 μM, 24 hours, serum-free medium
Experimental: (§2) For treatment with licofelone ([…] GmbH, Ulm, Germany), exponentially growing cells were trypsinized, seeded in regular medium (2×10^4 cells/well in 96-well plates; 1.2×10^5 cells/well in 24-well plates; 6×10^5 cells/well in 6-well plates; 1.5×10^6 cells in 25 cm^2 flasks) and incubated for 24 h. The medium was then replaced either with control medium or with medium containing 100, 125 or 150 μM licofelone. This drug was dissolved in dimethyl sulfoxide (DMSO) and diluted into the medium to obtain the required final concentration before each experiment. Fresh medium, alone or supplemented with licofelone, was completely replaced every 48 hours. To control for an effect of DMSO, control samples were treated in parallel with an equivalent concentration of this solvent. For determination of PGE2 and LTB4 production, HCA-7 were seeded in a 24-well plates at the density of 1.2×10^5 cells/well and grown in complete medium for 24 hours. Cells were then serum-starved overnight before being exposed to increasing doses of licofelone (100-150 μM) in serum-free medium for additional 24 hours. The harvested medium was centrifuged at 500×g for 5 min (4° C.) to remove floating cells and the supernatant was collected and assayed following customer instructions. The levels of PGE2 and LTB4 were measured by enzyme immunoassay. Results are expressed as picograms/ml of medium. […]

[4] = system: PGE2 production by HCA-7 cells; test: PGE2 level in HCA-7 culture medium, enzyme immunoassay; assay type: cell-based, human; conditions: all doses tested (100-150 μM), 24 hours
Experimental: as §2

[5] = Plasma ML3000 level after immediate release dosage form; assay type: in vivo; conditions: for 8 hours
caspase-3 = test: Western blot of caspase-3 cleavage in HCA-7 cells; assay type: cell-based, human; conditions: licofelone 150 μM, 0-24 hours, maximum after 24 hours
Experimental: as §1

HCA-7 cells [6] = test: Cell-cycle distribution by flow cytometry (propidium iodide), sub-G1 cells; assay type: cell-based, human; conditions: 0-150 μM, after 48 hours of treatment
Experimental: For treatment with licofelone ([…] GmbH, Ulm, Germany), exponentially growing cells were trypsinized, seeded in regular medium (2×10^4 cells/well in 96-well plates; 1.2×10^5 cells/well in 24-well plates; 6×10^5 cells/well in 6-well plates; 1.5×10^6 cells in 25 cm^2 flasks) and incubated for 24 h. The medium was then replaced either with control medium or with medium containing 100, 125 or 150 μM licofelone. This drug was dissolved in dimethyl sulfoxide (DMSO) and diluted into the medium to obtain the required final concentration before each experiment. Fresh medium, alone or supplemented with licofelone, was completely replaced every 48 hours. To control for an effect of DMSO, control samples were treated in parallel with an equivalent concentration of this solvent. The cell-cycle distribution for control and drug-treated cells was determined after 24 and 48 hours of treatment. Cells were seeded at the density of 6×10^5 cells/well onto 6-well plates and allowed to adhere for 24 h. Cells were then incubated with licofelone for 24 and 48 hours and then harvested by trypsinization. […] Subsequently, DNA content was measured using a flow cytometer and the cell-cycle distribution was calculated using the Phoenix Multicycle for Windows cell-cycle analysis software. A minimum of 10'000 events were measured for each sample.

For `CC1(C)Cc2c(-c3ccccc3)c(-c3ccc(Cl)cc3)c(CC(=O)O)n2C1` [licofelone, [2,2-dimethyl-6-(4-chlorophenyl)-7-phenyl-2,3-dihydro-1H-pyrrolizine-5 yl]-acetic acid], the “appearance of membrane blebbing after administration of the drug” value (HCA-7 cells [1]) was 10 to 12 h, the “morphological changes of nuclei after drug addition” value (HCA-7 cells [1]; Hoechst staining) was 16-18 hours and the “reversal of antiproliferative effect by exogenous PGE2 or LTB4” value (HCA-7 cells [2]; 150 μM licofelone, 48 hours, exogenous PGE2 and LTB4 added) was “neither PGE2 or LTB4 administration was able to reverse the antiproliferative effect”. It also gave an IC50 (HCA-7 cells [2]; Homo sapiens, HCA-7, after 24 hours of treatment) of 125 ± 6.25 µM, an IC50 (HCA-7 cells [2]; Homo sapiens, HCA-7, after 48 hours of treatment) of 72 ± 3.6 µM and an inhibition at 150 µM (HCA-7 cells [2]; Homo sapiens, HCA-7, licofelone 150 μM, read-out: inhibition of HCA-7 growth) of roughly 90%. The “degradation of PARP (85-kDa band)” value (PARP) was “marked degradation of PARP”, the “reduction of LTB4 levels with respect to untreated cells” value [3] was 85% and the “inhibition of PGE2 production” value [4] was “strongly inhibited PGE2 production”. The “plasma ML3000 concentration maintained” value ([5]; dose 2.5 mg/kg) was “above 100 ng/mL”, the “plasma ML3000 concentration maintained” value ([5]; dose 5 mg/kg) was greater than 200 ng/mL and the “cleavage of 34-kDa pro-enzyme caspase-3 to active 17-kDa form” value (caspase-3) was “strong and time-dependent cleavage”. The “accumulation of sub-G1 phase cells, maximum” value (HCA-7 cells [6]) was 85%.
